Columns and labels:
[1] = tested on: liver, kidney, heart, and skeletal muscle; assay: Ex vivo O2 consumption of mouse tissues
Experimental: Oxygen Consumption Rate (Seahorse): Respiration was measured on intact 143B cells and on mitochondria purified from tissue on the Seahorse XFe-96 Analyzer (Seahorse Bioscience). Cells were incubated in a non-CO2 37° C. incubator in serum-free Seahorse XF RPMI Media (Seahorse Bioscience, Catalog #103336) supplemented with 5 mM glucose, 2 mM glutamine, and 1 mM pyruvate. Oxygen consumption rate (OCR) was measured over a period of 30 minutes. Oxygen consumption rate was also measured on mitochondria purified from mouse tissues. Mitochondria were incubated in MAS buffer (70 mM sucrose, 220 mM mannitol, 10 mM KH2PO4, 5 mM MgCl2, 2 mM HEPES pH 7.2, 1 mM EGTA, 2% BSA) supplemented with 2 mM ADP, 5 mM glutamate, 5 mM malate, 5 mM pyruvate, and 2.5 mM succinate. Oxygen consumption rate (OCR) was measured over a period of 30 minutes.

143B cells = assay: Ubiquinone and ubiquinol measurement by LC-MS in mitochondria; assay type: cell-based, human; conditions: antimycin-treated SDHB knockout cells versus antimycin-treated wild-type cells
Experimental: Ubiquinone and Ubiquinol measurements: Ubiquinone and Ubiquinol were isolated from mitochondria purified by differential centrifugation as described above. Extraction and mass spectrometry protocols were performed with slight modifications to a previously described protocol. Briefly, mitochondria isolated from 25 million cells or approximately 100 mg mouse tissue were resuspended in 500 μL of ethanol and vortexed for 10 minutes at 4° C. Then, 1 mL of hexane was added and the samples were vortexed for an additional 10 minutes at 4° C. Samples were centrifuged at 16,000×g for 10 minutes at 4° C., creating two layers—the top hexane layer and bottom ethanol layer. The top (hexane) fraction was moved into a new tube and dried down. Immediately prior to LC-MS, samples were resuspended in 50 μL of 80:20 ethanol:hexane and loaded into a 4° C. autosampler. 5 μL of samples were injected onto a Luna 3 μm PFP(2) 100 Å, LC Column 100×2 mm. The column oven was held at 25° C. and the autosampler tray was held at 4° C. Buffer A contained water with 0.1% formic acid and Buffer B contained acetonitrile with 0.1% formic acid. […]

## antimycin
[1]
  O2 consumption: ablated
143B cells
  levels of UQH2 and ratio of UQH2:UQ: greater

Reference: patent US20250032430A1, “USES OF RHODOQUINONE FOR THE TREATMENT OF DISEASE” (Whitehead Institute for Biomedical Research, priority 2021, published 2025)
